Results from patent publication US20200222537A1, “BIOPHOTONIC COMPOSITIONS AND USES THEREOF” (KLOX TECHNOLOGIES LIMITED, priority 2016, published 2020).
Converted amounts (≈) assume the structure as drawn. “And” between values parts separate entries of the source, which are not always exact repeats. Identical values can stand only once.

Columns and labels:
[1] = Absorbance peak (Flex Station II); format: physicochemical
Procedure: (§1) The compounds were dissolved in the solvents and at the concentrations indicated in Table 2 and the absorbance and emission peaks were measured (measured using a Flex Station II, Model 384 by Molecular Devices Comp.).

[2] = physchem
[3] = Emission peak (Flex Station II); format: physicochemical
Procedure: as §1

[4] = Solubilization of chromophores in solvents; conditions: 1 M NaOH, aqueous buffer

O=C(O)/C=C/c1ccc(O)c(O)c1 [Caffeic acid]
Absorbance peak (nm) ([1]; liquid): 875 nm (liquid)

O=C(/C=C/c1ccc(O)c(O)c1)OCCc1ccccc1 [Caffeic acid phenethyl ester (CAPE), Caffeic acid phenethyl ester]
solubility ([2]; organic solvent or mixture): 10000 µg/mL (≈ 35.2 mM)

C/C=C1/[C@H](O[C@@H]2O[C@H](CO)[C@@H](O)[C@H](O)[C@H]2O)OC=C(C(=O)OC)[C@H]1CC(=O)OCCc1ccc(O)c(O)c1 [Oleuropein]
Absorbance peak (nm) ([1]; gel and liquid): 325 nm (gel and
solubility ([2]; organic solvent or mixture): 10000 µg/mL (≈ 18.5 mM)

O=c1oc2c(O)c(O)cc3c(=O)oc4c(O)c(O)cc1c4c23 [Ellagic acid]
Absorbance peak (nm) ([1]; gel): (liquid); 370 nm (gel)
Emission peak (nm) ([3]; ex. 370 nm, gel): ex. 370 nm, em. 736

O=C(/C=C/C=C/c1ccc2c(c1)OCO2)N1CCCCC1 [Piperine]
Absorbance peak (nm) ([1]; medium not stated): 344 nm
Emission peak (nm) ([3]; ex. 340 nm, medium not stated): nm, em. 443 nm
Emission peak (nm) ([3]; ex. 460 nm, gel): ex. 460 nm, em. 634

O=C1c2cccc(O)c2C(=O)c2c(O)cc(CO)cc21 [Aloe-emodin]
Emission peak (nm) ([3]; ex. 460 nm, gel): nm, em. 600 nm
Emission peak (nm) ([3]; ex. 460 nm, liquid): ex. 460 nm, em. 588
solubility ([2]; organic solvent or mixture): 10000 µg/mL (≈ 37 mM)

CC(C)=CCC/C(C)=C/C=C/C(C)=C/C=C/C(C)=C/C=C/C=C(C)/C=C/C=C(C)/C=C/C=C(\C)CCC=C(C)C [Lycopene]
Absorbance peak (nm) ([1]; gel): 490 nm
solubility ([2]; organic solvent or mixture): 1000 µg/mL (≈ 1.86 mM)

Cc1cc(O)c2c(=O)c3c(O)cc(O)c4c5c(O)cc(O)c6c(=O)c7c(O)cc(C)c8c1c2c(c34)c(c78)c65 [Hypericin]
Emission peak (nm) ([3]; ex. 345 nm, liquid): nm, em. 700 nm
Emission peak (nm) ([3]; ex. 460 nm, liquid): ex. 460 nm, em. 700
Emission peak (nm) ([3]; ex. 620 nm, liquid): em. 700 nm (liquid);
solubility [4]: 500 µg/mL (≈ 0.991 mM)

CCCCCCCCC[C@H](O)CC(=O)CCc1ccc(O)c(OC)c1 [10-Gingerol]
Absorbance peak (nm) ([1]; gel and liquid): 300 nm (gel and
solubility ([2]; organic solvent or mixture): 10000 µg/mL (≈ 28.5 mM)

Oc1ccc(/C=C/c2cc(O)cc(O)c2)cc1 [Resveratrol]
solubility ([2]; organic solvent or mixture): 10000 µg/mL (≈ 43.8 mM)

C[n+]1cc2c3c(ccc2c2ccc4cc5c(cc4c21)OCO5)OCO3.[Cl-] [Sanguinarine chloride hydrate]
Emission peak (nm) ([3]; ex. 300 nm, liquid): em. 600 nm (liquid);
Emission peak (nm) ([3]; ex. 330 nm, gel): nm, em. 590 nm
Emission peak (nm) ([3]; ex. 405 nm, liquid): ex. 405 nm, em. 600
Emission peak (nm) ([3]; ex. 460 nm, gel): ex. 460 nm, em. 591
Emission peak (nm) ([3]; ex. 460 nm, liquid): nm, em. 600 nm
solubility ([2]; organic solvent or mixture): 3330 µg/mL

O=C1C[C@@](O)(C(=O)O)C(C(=O)O)O1 (stereo partly drawn) [Garcinia acid]
Absorbance peak (nm) ([1]; gel and liquid): 300 nm (gel and
solubility ([2]; organic solvent or mixture): 10000 µg/mL (≈ 52.6 mM)

CC1=C(/C=C/C(C)=C/C=C/C(C)=C/C=C/C=C(C)/C=C/C=C(C)/C=C/C2=C(C)C[C@@H](O)CC2(C)C)C(C)(C)C[C@H](O)C1 [Zeaxanthin]
Absorbance peak (nm) ([1]; gel and liquid): 465 nm (gel and
Emission peak (nm) ([3]; ex. 300 nm, gel): 415 nm and 432 nm and 740 nm and 817 nm
solubility ([2]; organic solvent or mixture): 2000 µg/mL (≈ 3.52 mM)

COc1ccc2cc3[n+](cc2c1OC)CCc1cc2c(cc1-3)OCO2 [Berberine chloride hydrate]
Emission peak (nm) ([3]; ex. 340 nm, gel): ex. 340 nm, em. 538
Emission peak (nm) ([3]; ex. 430 nm, liquid): nm, em. 545 nm (liquid)
Emission peak (nm) ([3]; ex. 460 nm, gel + liquid): ex. 460 nm, em. 540

O=C(OC[C@H]1O[C@@H](OC(=O)c2cc(O)c(O)c(OC(=O)c3cc(O)c(O)c(O)c3)c2)[C@H](OC(=O)c2cc(O)c(O)c(OC(=O)c3cc(O)c(O)c(O)c3)c2)[C@@H](OC(=O)c2cc(O)c(O)c(OC(=O)c3cc(O)c(O)c(O)c3)c2)[C@@H]1OC(=O)c1cc(O)c(O)c(OC(=O)c2cc(O)c(O)c(O)c2)c1)c1cc(O)c(O)c(OC(=O)c2cc(O)c(O)c(O)c2)c1 [Tannic acid]
solubility ([2]; water): 10000 µg/mL (≈ 5.88 mM)

COc1cc(/C=C/C(=O)/C=C(O)/C=C/c2ccc(O)c(OC)c2)ccc1O [Curcumin]
Absorbance peak (nm) ([1]; medium not stated): 440 nm
Emission peak (nm) ([3]; ex. 390 nm, liquid): em. 540 nm (liquid);
Emission peak (nm) ([3]; ex. 440 nm, gel): ex. 440 nm, em. 552
Emission peak (nm) ([3]; ex. 460 nm, gel): ex. 460 nm, em. 555
Emission peak (nm) ([3]; ex. 460 nm, liquid): nm, em. 544 nm
solubility ([2]; organic solvent or mixture): 5000 µg/mL (≈ 13.6 mM)
